Values after ≈ are worked out from the molar mass of the structure shown. Like-named read-outs stand apart in the source and are kept apart here.
Key:
[1] = set-up: method as in PMID 27492018, doi:10.2133/dmpk.10.637; details: oral administration, cited from earlier work
[2] = PK study in rats after oral administration; assay type: in vivo, Sprague-Dawley (SD) rats; details: male, Sprague-Dawley, rat, PEL in plasma, single oral dose 9.3 mg/kg PEL equivalent, n = 10
Protocol: Male Sprague-Dawley (SD) rats (8-weeks-old) from DBL Co., Ltd. (Eumseong, Korea) were maintained under constant laboratory conditions (temperature: 22 ± 3 °C, RH: 50 ± 20%, light/dark cycle: 12 h). The rats were divided into two groups, each composed of 10 rats. The animals were fasted overnight and were only allowed free access to water. […] Blood samples (500 μL) were collected directly from the jugular vein at predetermined time points (0, 0.083, 0.167, 0.25, 0.5, 0.75, 1, 2, 3, 4, and 8 h) using heparinized syringes. The collected blood samples were centrifuged immediately at 12,000 rpm for 5 min at 4 °C and the obtained plasma samples were stored at −70 °C until analysis.
The plasma concentration of PEL was determined using LC–MS/MS (Agilent 1260; Agilent Technologies Inc., Santa Clara, CA, USA). The chromatographic separation of PEL was performed using an ODS column (Poroshell 120 EC-C18, 2.1 × 30 mm, 2.7 µm, Agilent Technologies Inc., Santa Clara, CA, USA). The mobile phase (MP) consisted of 0.1% formic acid and acetonitrile with a gradient elution and the flow rate used was 0.4 mL/min. Mass spectrometric detection was done using an AB Sciex API 4000 triple quadrupole mass spectrometer (AB Sciex Instruments, Framingham, MA, USA). The electrospray ionization (ESI) source was set to positive ion mode. The mass-to-charge ratios (m/z) used were 259.0 → 195.2 for PEL and 255.1 → 208.9 for ketoprofen, which were used as the internal standards (IS). […] The assay method was validated for linearity, accuracy, and precision.
The PK parameters for PEL were calculated using the noncompartmental analysis and WinNonlin® 8.1 (Pharsight, CA, USA). The area under the plasma concentration–time curve from 0 h to the last time point (AUCt) was calculated for all samples using the linear trapezoidal method. The maximum plasma concentration and time to reach the maximum plasma concentration (Tmax) were directly obtained from the plasma concentration–time profiles.

[3] = set-up: method as in PMID 27492018, doi:10.2133/dmpk.10.637; details: oral administration, rats; cited from earlier work
[4] = Stress stability test (high temperature or high humidity); assay type: physicochemical
Protocol: (§1) PEL and butylparaben (IS) were prepared and further diluted in a mixture of methanol and deionized water at a ratio of 4:1 (v/v) to provide a working PEL and IS solution of concentration 30 µg/mL. The PEL concentration was determined using an HPLC system (Model 1260; Agilent Technologies Inc., Santa Clara, CA, USA). Chromatographic separation was performed using a C18 column (4.6 × 150 mm, 5 µm, Waters, Milford, MA, USA) at a flow rate of 1.1 mL/min with the mobile phase consisting of methanol, water, and acetic acid at a ratio of 1200:800:1 (v/v). The sample was injected into the column, and the peaks were monitored using a UV detector at 274 nm.
Stability tests of PEL-T and PEL were performed under stress storage conditions. PEL-T and PEL were packed into high-density polyethylene (HDPE) bottles with caps and used as stability test samples. For stress stability, the samples were stored at a high temperature (80 ± 5 °C) or high humidity (relative humidity (RH) 90 ± 5%). The drug content and impurities were determined using the HPLC assay described above (Section 2.4) at the following time points: 0, 14, and 21 days (Tables S3 and S4).

[5] = Solubility at various pH values; assay type: physicochemical; details: thermodynamic from solid, stirred 24 h, mean ± S.D. (n = 3)
Protocol: as §1
The solubilities of PEL-T and PEL were compared and evaluated based on the pH changes. After dissolving 5 g of PEL-T and PEL each in 5 mL of water, a pH 1.2 solution, a pH 4.0 solution, and a pH 6.8 solution, respectively, the mixtures were stirred for 24 h, filtered using a 0.45 μm polyvinylidene difluoride (PVDF) syringe filter, and then were analyzed using an HPLC assay, as described above (Section 2.4).

gastric mucosa = assay: Gastric mucosal injury test in rats; assay type: in vivo, Sprague-Dawley (SD) rats; details: single p.o. dose equivalent to PEL 300 mg/kg, 6 h after dosing, 48 h fasted male SD rats, n = 10
Protocol: The gastric mucosal injury test was performed by KNOTUS Co., Ltd. (Guri, Korea) and approved by the Animal Ethics Committee (Protocol number: […]-354 approved 18 October 2018). Male Sprague-Dawley (SD) rats (7-weeks-old) from Orient bio Co., Ltd. […] The rats were randomly divided into three groups, each group consisting of 10 animals. […] The area of the lesions was analyzed using ImageJ software (National Institutes of Health, Bethesda, MD, USA).

Caco-2 cells = assay: Permeability test in Caco-2 cell monolayers; assay type: in vitro ADME
Protocol: (§2) Caco-2 monolayer experiments were performed as previously described with a few modifications [20]. The Caco-2 cells were obtained from the Korean Cell Line Bank (Seoul, Korea) and used in the transport experiments between passages 40 and 50. The cells were cultured at 37 °C with 5% CO2 and maintained in Dulbecco’s modified Eagle’s medium with 10% fetal bovine serum, 1% nonessential amino acids, 10,000 units/mL penicillin, and 10,000 μg/mL streptomycin. For the transport studies, cells were seeded on rat tail collagen-coated Transwell insert filters on 12-well plates at 3 × 10^5 cells/500 μL and were cultured for 21–29 days. For the first 7 days, the medium was replaced every 2–3 days, and daily thereafter. Monolayer integrity was checked before and after each experiment using a Millicell-ERS instrument to determine the transepithelial electrical resistance (TEER) across the monolayer and to ensure that there were no substantial changes in the monolayer integrity throughout the duration of the experiments.
(§3) Prior to transport experiments, the cell monolayers were washed twice using Hank’s balanced salt solution (HBSS), and the Caco-2 cell Transwell model was preincubated at 37 °C for 15 min. […] The sample was pretreated using a protein precipitation method and the concentrations of PEL in each sample were determined using an LC–MS/MS assay, as described below (Section 2.9). […] The sample was pretreated using a protein precipitation method and the concentration of PEL in each sample was determined using an LC–MS/MS assay. The steady state flux (Js) and permeability coefficient (Kp) were calculated according to Equations (1) and (2):Js [ng/(cm^2 × h)] = Qr/(A × t)(1) Kp (cm/h) = Js/Cd(2) where Qr is the total permeation amount of PEL in the basolateral (for the absorptive transport) or apical (for the secretory transport) side (ng), A is the surface area of the insert (1.12 cm^2), t is the permeation time (h), and Cd is the initial drug concentration in the apical (for the absorptive transport) or basolateral (for the secretory transport) side (ng/cm^3). […]

[6] = Permeability test in Caco-2 cell monolayers; assay type: in vitro ADME; details: human, Caco-2; Kp [B to A]/Kp [A to B]
Protocol: as §2, §3

AUC(0-t) [2]: 19.2 ± 7.01 ng·h/mL | Cmax [2]: 46.3 ± 29.2 ng/mL | Tmax ([2]; plasma, po, 9.3 mg/kg): 23.4 ± 11.4 min | Changes in the drug contents in the stress stability test ([4]; 80 ± 5 °C or RH 90 ± 5%, entire period (21 days)): No significant changes | Contents ([4]; 80 ± 5 °C, 0 days): 98.6 ± 0.8% | Contents ([4]; 80 ± 5 °C, 14 days): 98.2 ± 0.6% | Contents ([4]; 80 ± 5 °C, 21 days): 97.1 ± 0.9% | Contents ([4]; RH 90 ± 5%, 0 days): 98.6 ± 0.8% | Contents ([4]; RH 90 ± 5%, 14 days): 98.9 ± 0.4% | Contents ([4]; RH 90 ± 5%, 21 days): 98.5 ± 0.4% | solubility at 24 h ([5]; aqueous buffer, pH 4.0 solution): 70 ± 40 µg/mL (≈ 271 µM) | solubility at 24 h ([5]; aqueous buffer, pH 6.8 solution): 4050 ± 140 µg/mL (≈ 15700 µM) | solubility at 24 h ([5]; simulated gastric fluid, pH 1.2 solution): 30 ± 10 µg/mL (≈ 116 µM) | solubility at 24 h ([5]; water): 130 ± 30 µg/mL (≈ 503 µM) | Efflux ratio, times higher than that of PEL-T (Caco-2 cells): 1.6 times | Kp B to A, times higher than that of PEL-T (Caco-2 cells; secretory direction, not statistically significant): 1.3 times | efflux ratio at 120 min, 50 μM [6]: 1.24
SMILES: CC(C(=O)O)c1ccc(C=C2CCCCC2=O)cc1 (stereo not drawn) [PEL, 2-[4-(2-oxocyclohexylidenemethyl)phenyl] propionic acid]
Time to reach the maximum plasma concentration (Cmax) ([1]; female beagle dogs): 2 h | Time to reach the maximum plasma concentration (Cmax) ([1]; male beagle dogs): 1 h | Time to reach the maximum plasma concentration (Cmax) [3]: 30 min | Damage area (mucosal hemorrhagic lesions) (gastric mucosa): 4.01%

Reference: paper PMC8158122, “Development of Pelubiprofen Tromethamine with Improved Gastrointestinal Safety and Absorption” (Pharmaceutics, 2021)
